This is an account of results in ChEMBL document CHEMBL1909294, “Translating clinical findings into knowledge in drug safety evaluation--drug induced liver injury prediction system (DILIps)” (PLoS Comput Biol, 2011).

In data set [1] the test system is Hepatotoxicity.
For data set [2], the system named is Hepatotoxicity. This is another data set of the same source.
Data set [3] deals with Hepatotoxicity. The source holds these as a separate data set.
For data set [4], the system named is Hepatotoxicity. The source holds these as a separate data set.
The test system of data set [5] is Hepatotoxicity. This is another data set of the same source.
Data set [6] relates to Hepatotoxicity. The source holds these as a separate data set.
The subject of data set [7] is Hepatotoxicity. The source holds these as a separate data set.
For data set [8], the system named is Hepatotoxicity. The source holds these as a separate data set.
Data set [9] relates to Hepatotoxicity. This is another data set of the same source.
The test system of data set [10] is Hepatotoxicity. This is another data set of the same source.
In data set [11] the test system is Hepatotoxicity. The source holds these as a separate data set.
Data set [12] concerns Hepatotoxicity. The source holds these as a separate data set.
For data set [13], the system named is Hepatotoxicity. The source holds these as a separate data set.
Data set [14] relates to Hepatotoxicity. The source holds these as a separate data set.
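Throughout, for HepSE Combined Scores: combined hepatic side effect score as listed in the training data of the Drug Induced Liver Injury Prediction System (DILIps).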
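Throughout, for HepSE bilirubinemia: bilirubinemia hepatic side effect score drawn from the DILIps training data, a prediction system for drug-induced liver injury; call rule not given here.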
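Throughout, for HepSE cholecystitis: Cholecystitis-related hepatic side effect score drawn from the DILIps (drug-induced liver injury prediction) training data set; call rule not given here.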
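Throughout, for HepSE cholelithiasis: hepatic side effect score for cholelithiasis, drawn from the DILIps training data for predicting drug-induced liver injury; call rule not given here.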
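Throughout, for HepSE cirrhosis: cirrhosis hepatic side effect score taken from the DILIps (drug-induced liver injury prediction) training set; call rule not given here.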
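Throughout, for HepSE elevated liver function tests: hepatic side effect score for raised liver function tests, as recorded in the DILIps training set used for predicting drug-induced liver injury.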
Throughout, for HepSE hepatic failure: call rule not given here.
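Throughout, for HepSE hepatic necrosis: score of hepatic side effects for hepatic necrosis, drawn from the training data of DILIps, a prediction system for drug-induced liver injury; call rule not given here.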
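Throughout, for HepSE hepatitis: Hepatitis-related hepatic side effect score taken from the training data of DILIps, a prediction system for drug-induced liver injury; call rule not given here.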
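Throughout, for HepSE hepatomegaly: hepatic side effect score for hepatomegaly, taken from the training set of the DILIps drug-induced liver injury prediction system; call rule not given here.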
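Throughout, for HepSE jaundice: Jaundice-related hepatic side-effect score drawn from the training data of the DILIps (drug-induced liver injury prediction system); call rule not given here.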
Throughout, for HepSE liver disease: call rule not given here.
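Throughout, for HepSE liver fatty: hepatic side effect score for fatty liver, taken from the DILIps training set for predicting drug-induced liver injury; call rule not given here.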
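Throughout, for HepSE liver function tests abnormal: hepatic side effect score taken from the DILIps (drug-induced liver injury prediction system) training data, here covering abnormal liver function test findings.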

The compound `C[C@H]1C[C@H]2[C@@H]3CCC4=CC(=O)C=C[C@]4(C)[C@@]3(F)[C@@H](O)C[C@]2(C)[C@@]1(O)C(=O)CCl` [CLOBETASOL] came in with a HepSE_bilirubinemia in the data set with Hepatotoxicity [1] of 0. This compound also showed a HepSE_hepatitis with Hepatotoxicity [2] of 0. The same compound returned a HepSE_cholelithiasis in the data set with Hepatotoxicity [3] of 0. Also, the HepSE_cholecystitis with Hepatotoxicity [4] stood at 0. In addition, the HepSE_hepatic necrosis in the data set on Hepatotoxicity [5] turned out to be 0. The compound further registered a HepSE_liver fatty in the data set on Hepatotoxicity [6] of 0. Moreover, the HepSE_jaundice in the data set on Hepatotoxicity [7] is 0. For the same compound, the “HepSE_liver function tests abnormal” value in the data set on Hepatotoxicity [8] was 0. Further, in the data set with Hepatotoxicity [9], the “HepSE_Combined Scores” value worked out at 0. Besides, the HepSE_cirrhosis in the data set on Hepatotoxicity [10] stood at 0. The HepSE_hepatic failure with Hepatotoxicity [11] was found to be 0. In the data set on Hepatotoxicity [12], this compound registered a HepSE_liver disease of 0. The “HepSE_elevated liver function tests” value with Hepatotoxicity [13] was determined as 0. Further, the HepSE_hepatomegaly in the data set with Hepatotoxicity [14] amounted to 0.
In turn, `O=C(O)c1cc(/N=N/c2ccc(S(=O)(=O)Nc3ccccn3)cc2)ccc1O` [SULFASALAZINE] gave a HepSE_bilirubinemia in the data set with Hepatotoxicity [1] of 0. In the data set with Hepatotoxicity [2], this compound yielded a HepSE_hepatitis of 1. The HepSE_cholelithiasis in the data set with Hepatotoxicity [3] was 0. In addition, the HepSE_cholecystitis with Hepatotoxicity [4] came out at 0. The compound also came in with a HepSE_hepatic necrosis in the data set on Hepatotoxicity [5] of 1. The compound also yielded a HepSE_liver fatty in the data set on Hepatotoxicity [6] of 0. The same compound registered a HepSE_jaundice with Hepatotoxicity [7] of 1. For the same compound, in the data set with Hepatotoxicity [8], the “HepSE_liver function tests abnormal” value was 1. The “HepSE_Combined Scores” value with Hepatotoxicity [9] is 7. In the data set with Hepatotoxicity [10], this compound came in with a HepSE_cirrhosis of 1. Further, the HepSE_hepatic failure with Hepatotoxicity [11] is on record as 1. In the data set with Hepatotoxicity [12], this compound yielded a HepSE_liver disease of 0. Moreover, the “HepSE_elevated liver function tests” value in the data set with Hepatotoxicity [13] is given as 1. The same compound returned a HepSE_hepatomegaly in the data set on Hepatotoxicity [14] of 0.
As for `C[C@@H]1CN([C@H]2CC[C@](C#N)(c3ccc(F)cc3)CC2)CC[C@]1(C(=O)O)c1ccccc1` [LEVOCABASTINE], the HepSE_bilirubinemia with Hepatotoxicity [1] is given as 0. For the same compound, the HepSE_hepatitis in the data set on Hepatotoxicity [2] is 0. In the data set with Hepatotoxicity [3], the HepSE_cholelithiasis was determined as 0. The HepSE_cholecystitis in the data set on Hepatotoxicity [4] is given as 0. Besides, the HepSE_hepatic necrosis in the data set on Hepatotoxicity [5] is listed as 0. Also, the HepSE_liver fatty in the data set on Hepatotoxicity [6] came to 0. This compound yielded a HepSE_jaundice in the data set with Hepatotoxicity [7] of 0. In addition, the “HepSE_liver function tests abnormal” value in the data set on Hepatotoxicity [8] is given as 0. In addition, in the data set on Hepatotoxicity [9], the “HepSE_Combined Scores” value was 0. This compound had a HepSE_cirrhosis with Hepatotoxicity [10] of 0. In the data set with Hepatotoxicity [11], this compound came in with a HepSE_hepatic failure of 0. The same compound came in with a HepSE_liver disease in the data set on Hepatotoxicity [12] of 0. The “HepSE_elevated liver function tests” value with Hepatotoxicity [13] was 0. The HepSE_hepatomegaly in the data set with Hepatotoxicity [14] worked out at 0.
The compound `CC(N)Cc1c[nH]c2ccccc12` (stereo not given) displayed a HepSE_bilirubinemia with Hepatotoxicity [1] of 0. The same compound returned a HepSE_hepatitis in the data set with Hepatotoxicity [2] of 0. This compound showed a HepSE_cholelithiasis with Hepatotoxicity [3] of 0. Besides, the HepSE_cholecystitis in the data set with Hepatotoxicity [4] is given as 0. For the same compound, the HepSE_hepatic necrosis with Hepatotoxicity [5] is 0. This compound gave a HepSE_liver fatty with Hepatotoxicity [6] of 0. The compound also registered a HepSE_jaundice with Hepatotoxicity [7] of 0. Besides, the “HepSE_liver function tests abnormal” value in the data set on Hepatotoxicity [8] was found to be 0. Besides, in the data set with Hepatotoxicity [9], the “HepSE_Combined Scores” value was determined as 0. Also, in the data set with Hepatotoxicity [10], the HepSE_cirrhosis was determined as 0. Besides, the HepSE_hepatic failure with Hepatotoxicity [11] is recorded as 0. Moreover, the HepSE_liver disease in the data set with Hepatotoxicity [12] stood at 0. Further, the “HepSE_elevated liver function tests” value in the data set on Hepatotoxicity [13] was 0. Moreover, the HepSE_hepatomegaly in the data set on Hepatotoxicity [14] is listed as 0.
In the case of `O=C(O)P(=O)(O)O` [FOSCARNET], in the data set on Hepatotoxicity [1], the HepSE_bilirubinemia is given as 0. The compound further showed a HepSE_hepatitis in the data set with Hepatotoxicity [2] of 0. The HepSE_cholelithiasis in the data set on Hepatotoxicity [3] is listed as 0. In the data set on Hepatotoxicity [4], this compound returned a HepSE_cholecystitis of 0. This compound also registered a HepSE_hepatic necrosis in the data set with Hepatotoxicity [5] of 0. The HepSE_liver fatty in the data set with Hepatotoxicity [6] is 0. The same compound gave a HepSE_jaundice with Hepatotoxicity [7] of 0. The “HepSE_liver function tests abnormal” value in the data set with Hepatotoxicity [8] was determined as 0. For the same compound, the “HepSE_Combined Scores” value with Hepatotoxicity [9] is 0. Moreover, in the data set with Hepatotoxicity [10], the HepSE_cirrhosis is reported as 0. In the data set on Hepatotoxicity [11], this compound had a HepSE_hepatic failure of 0. Moreover, the HepSE_liver disease in the data set with Hepatotoxicity [12] was 0. For the same compound, the “HepSE_elevated liver function tests” value in the data set on Hepatotoxicity [13] is given as 0. Further, the HepSE_hepatomegaly with Hepatotoxicity [14] was found to be 0.
Regarding `CN1CC(=O)N2[C@H](c3ccc4c(c3)OCO4)c3[nH]c4ccccc4c3C[C@@H]2C1=O`, the HepSE_bilirubinemia with Hepatotoxicity [1] came out at 0. The compound further returned a HepSE_hepatitis in the data set on Hepatotoxicity [2] of 0. In addition, the HepSE_cholelithiasis in the data set with Hepatotoxicity [3] is listed as 0. In the data set with Hepatotoxicity [4], this compound registered a HepSE_cholecystitis of 0. In the data set on Hepatotoxicity [5], the HepSE_hepatic necrosis was determined as 0. This compound also had a HepSE_liver fatty with Hepatotoxicity [6] of 0. This compound registered a HepSE_jaundice in the data set with Hepatotoxicity [7] of 0. In addition, the “HepSE_liver function tests abnormal” value in the data set on Hepatotoxicity [8] came to 1. Also, in the data set on Hepatotoxicity [9], the “HepSE_Combined Scores” value was determined as 1. This compound showed a HepSE_cirrhosis in the data set on Hepatotoxicity [10] of 0. Further, in the data set with Hepatotoxicity [11], the HepSE_hepatic failure turned out to be 0. The HepSE_liver disease in the data set on Hepatotoxicity [12] was 0. In the data set with Hepatotoxicity [13], the “HepSE_elevated liver function tests” value came to 0. In the data set with Hepatotoxicity [14], the HepSE_hepatomegaly was 0.
For `CC(C)NCC(O)c1ccc(O)c(O)c1` (stereo not given) [ISOPROTERENOL], in the data set on Hepatotoxicity [1] (Liver), the HepSE_bilirubinemia worked out at 0. In the data set on Hepatotoxicity [2] (Liver), this compound gave a HepSE_hepatitis of 0. In addition, the HepSE_cholelithiasis with Hepatotoxicity [3] (Liver) turned out to be 0. In the data set with Hepatotoxicity [4] (Liver), this compound showed a HepSE_cholecystitis of 0. Further, the HepSE_hepatic necrosis in the data set with Hepatotoxicity [5] (Liver) was found to be 0. The HepSE_liver fatty in the data set with Hepatotoxicity [6] (Liver) worked out at 0. In addition, in the data set with Hepatotoxicity [7] (Liver), the HepSE_jaundice is recorded as 0. For the same compound, in the data set with Hepatotoxicity [8] (Liver), the “HepSE_liver function tests abnormal” value is 0. The “HepSE_Combined Scores” value in the data set with Hepatotoxicity [9] (Liver) came to 0. This compound came in with a HepSE_cirrhosis in the data set with Hepatotoxicity [10] (Liver) of 0. For the same compound, in the data set on Hepatotoxicity [11] (Liver), the HepSE_hepatic failure stood at 0. The compound further registered a HepSE_liver disease in the data set on Hepatotoxicity [12] (Liver) of 0. The “HepSE_elevated liver function tests” value with Hepatotoxicity [13] (Liver) worked out at 0. This compound showed a HepSE_hepatomegaly in the data set on Hepatotoxicity [14] (Liver) of 0.
Take `COC(=O)C1=C(C)NC(C)=C(C(=O)OC(C)C)C1c1cccc2nonc12` (stereo not given) [ISRADIPINE]: the HepSE_bilirubinemia in the data set with Hepatotoxicity [1] came out at 0. Besides, in the data set on Hepatotoxicity [2], the HepSE_hepatitis is listed as 0. Also, the HepSE_cholelithiasis in the data set on Hepatotoxicity [3] was 0. The compound further returned a HepSE_cholecystitis with Hepatotoxicity [4] of 0. The same compound came in with a HepSE_hepatic necrosis with Hepatotoxicity [5] of 0. In the data set with Hepatotoxicity [6], this compound came in with a HepSE_liver fatty of 0. Also, in the data set with Hepatotoxicity [7], the HepSE_jaundice is 0. Further, the “HepSE_liver function tests abnormal” value in the data set with Hepatotoxicity [8] is on record as 0. Moreover, the “HepSE_Combined Scores” value in the data set with Hepatotoxicity [9] was 1. The compound further displayed a HepSE_cirrhosis in the data set on Hepatotoxicity [10] of 0. In addition, the HepSE_hepatic failure with Hepatotoxicity [11] amounted to 0. The compound further came in with a HepSE_liver disease in the data set with Hepatotoxicity [12] of 0. In addition, the “HepSE_elevated liver function tests” value in the data set with Hepatotoxicity [13] is reported as 1. In addition, in the data set with Hepatotoxicity [14], the HepSE_hepatomegaly is recorded as 0.
Compound `Clc1ccc2c(c1)C(N1CCNCC1)=Nc1ccccc1O2` [AMOXAPINE] showed a HepSE_bilirubinemia in the data set with Hepatotoxicity [1] of 0. This compound also had a HepSE_hepatitis in the data set on Hepatotoxicity [2] of 1. In the data set on Hepatotoxicity [3], this compound registered a HepSE_cholelithiasis of 0. The HepSE_cholecystitis with Hepatotoxicity [4] was 0. The same compound gave a HepSE_hepatic necrosis in the data set with Hepatotoxicity [5] of 0. In the data set with Hepatotoxicity [6], this compound yielded a HepSE_liver fatty of 0. Also, the HepSE_jaundice in the data set on Hepatotoxicity [7] is listed as 1. Further, in the data set on Hepatotoxicity [8], the “HepSE_liver function tests abnormal” value turned out to be 0. Further, in the data set with Hepatotoxicity [9], the “HepSE_Combined Scores” value came out at 2. The compound also showed a HepSE_cirrhosis in the data set on Hepatotoxicity [10] of 0. The HepSE_hepatic failure with Hepatotoxicity [11] is 0. In the data set on Hepatotoxicity [12], the HepSE_liver disease turned out to be 0. Also, the “HepSE_elevated liver function tests” value in the data set on Hepatotoxicity [13] came out at 0. In addition, the HepSE_hepatomegaly in the data set on Hepatotoxicity [14] is listed as 0.
On to `CCC1(c2ccc(N)cc2)CCC(=O)NC1=O` (stereo not given) [AMINOGLUTETHIMIDE], for which the HepSE_bilirubinemia with Hepatotoxicity [1] is on record as 0. The same compound displayed a HepSE_hepatitis with Hepatotoxicity [2] of 0. In the data set with Hepatotoxicity [3], the HepSE_cholelithiasis stood at 0. This compound returned a HepSE_cholecystitis in the data set with Hepatotoxicity [4] of 0. In addition, the HepSE_hepatic necrosis in the data set with Hepatotoxicity [5] is reported as 0. In the data set on Hepatotoxicity [6], this compound showed a HepSE_liver fatty of 0. Further, the HepSE_jaundice in the data set on Hepatotoxicity [7] was determined as 0. In the data set on Hepatotoxicity [8], the “HepSE_liver function tests abnormal” value came to 0. Further, in the data set on Hepatotoxicity [9], the “HepSE_Combined Scores” value came out at 0. This compound returned a HepSE_cirrhosis in the data set on Hepatotoxicity [10] of 0. The HepSE_hepatic failure in the data set with Hepatotoxicity [11] turned out to be 0. The same compound had a HepSE_liver disease in the data set on Hepatotoxicity [12] of 0. In the data set on Hepatotoxicity [13], the “HepSE_elevated liver function tests” value is given as 0. The same compound displayed a HepSE_hepatomegaly in the data set with Hepatotoxicity [14] of 0.
